Calls of active or inactive are those of the source. No cut-off for these calls is given here.

Data set [1] in a line: Selectivity ratio, ratio of IC50 for cytotoxicity against human PANC-1 cells in Dulbecco's modified Eagle's medium to PC50 for preferential cytotoxic activity against human PANC-1 cells in nutrient-deprived medium. The class given is functional.
In data set [2] the test system is PANC-1. Briefly: Preferential cytotoxic activity against human PANC-1 cells in nutrient-deprived medium assessed as reduction in cell viability incubated for 24 hrs by WST-8 cell counting analysis. The class given is functional.
In data set [3] the test system is PANC-1. Kind of data set: Cytotoxicity against human PANC-1 cells in Dulbecco's modified Eagle's medium assessed as reduction in cell viability incubated for 24 hrs by WST-8 cell counting analysis. The class given is functional, cell-based. The following applies: PANC-1, 24 h.
Data set [4] has as its system MIA PaCa-2. Briefly: Antitumor activity against human MIA PaCa-2 cells xenografted in athymic BALB/c-nu mouse assessed as reduction in blood vessels at 50 to 250 ug, ip administered 5 times per week for 4 weeks. The class given is functional, organism-based. The following applies: dose 50-250 µg.
The test system of data set [5] is MIA PaCa-2. Kind of data set: Antitumor activity against human MIA PaCa-2 cells xenografted in athymic BALB/c-nu mouse assessed as reduction in average mean wet weight at 50 ug, ip administered 5 times per week for 4 weeks and measured on day 32 (reference value: 465.4 mg). The data set is classed as functional. The following applies: dose 50 µg.
A short description of data set [6]: Toxicity in athymic BALB/c-nu mouse xenografted with human MIA PaCa-2 cells assessed as changes in abdominal organs at 50 to 250 ug, ip administered 5 times per week for 4 weeks. The class given is organism-based. Particulars: in vivo, 672 h, dose 50-250 µg.
In data set [7] the test system is PANC-1. Kind of data set: Disruption of plasma membrane integrity in human PANC-1 cells in nutrient-deprived medium assessed as leakage of cellular contents by measuring increase in red fluorescence at 1 uM incubated for 24 hrs by dual fluorescent staining based microscopic analysis. The data set is classed as functional, cell-based.
A short description of data set [8]: Inhibition of PI3K/Akt/mTOR signaling pathway in human PANC-1 cells in nutrient-deprived medium assessed as redution in Akt phosphorylation at 0.5 to 10 uM incubated for 3 hrs by Western blotting analysis. The following applies: dose 0.5-10 µM. The data set is classed as cell-based.
Data set [9] can be described thus: Inhibition of PI3K/Akt/mTOR signaling pathway in human PANC-1 cells in nutrient-deprived medium incubated for 3 to 6 hrs by Western blotting analysis. The data set is classed as cell-based. The following applies: dose 0.5-10 µM, time 3-6 hrs.
The subject of data set [10] is PANC-1. Kind of data set: Disruption of plasma membrane integrity in human PANC-1 cells in nutrient-deprived medium assessed as rupture of the cell membrane by measuring increase in red fluorescence at 1 uM incubated for 24 hrs by dual fluorescent staining based microscopic analysis. The class given is functional.
Data set [11] concerns MIA PaCa-2. Kind of data set: Antitumor activity against human MIA PaCa-2 cells xenografted in athymic BALB/c-nu mouse assessed as reduction in average mean wet weight at 250 ug, ip administered 5 times per week for 4 weeks and measured on day 32 (reference value: 465.4 mg). The data set is classed as functional. The following applies: dose 250 µg.
In data set [12] the test system is PANC-1. Briefly: Disruption of plasma membrane integrity in human PANC-1 cells in nutrient-deprived medium assessed as rounded cell morphology by measuring increase in red fluorescence at 1 uM incubated for 24 hrs by dual fluorescent staining based microscopic analysis. The class given is functional.
The nature of data set [13]: Toxicity in athymic BALB/c-nu mouse xenografted with human MIA PaCa-2 cells assessed as changes in body weight at 50 to 250 ug, ip administered 5 times per week for 4 weeks and measured twice weekly. The class given is organism-based. Particulars: in vivo, 672 h, dose 50-250 µg.
The test system of data set [14] is MIA PaCa-2. Kind of data set: Antitumor activity against human MIA PaCa-2 cells xenografted in athymic BALB/c-nu mouse assessed as changes in gross appearance of tumor at 50 to 250 ug, ip administered 5 times per week for 4 weeks. The following applies: dose 50-250 µg. The class given is functional, organism-based.
Data set [15] in a line: Inhibition of PI3K/Akt/mTOR signaling pathway in human PANC-1 cells in nutrient-deprived medium at 0.5 to 10 uM by Western blotting analysis. The class given is cell-based. The following applies: dose 0.5-10 µM, time 3-6 hrs, TDE = time-dependent effect.
Data set [16] in a line: Toxicity in athymic BALB/c-nu mouse xenografted with human MIA PaCa-2 cells assessed as survival at 50 to 250 ug, ip administered 5 times per week for 4 weeks. The data set is classed as organism-based. Particulars: in vivo, 672 h, dose 50-250 µg.
Data set [17] relates to PANC-1. Kind of data set: Disruption of plasma membrane integrity in human PANC-1 cells in nutrient-deprived medium assessed as membrane blebs by measuring increase in red fluorescence at 1 uM incubated for 24 hrs by dual fluorescent staining based microscopic analysis. The class given is functional, cell-based.
In data set [18] the test system is MIA PaCa-2. Kind of data set: Antitumor activity against human MIA PaCa-2 cells xenografted in athymic BALB/c-nu mouse assessed as reduction in mean tumor volume at 250 ug, ip administered 5 times per week for 4 weeks and measured on day 32 (reference value: 1642 mm3). The data set is classed as functional. The following applies: dose 250 µg.
Data set [19] relates to MIA PaCa-2. Kind of data set: Antitumor activity against human MIA PaCa-2 cells xenografted in athymic BALB/c-nu mouse assessed as reduction in mean tumor volume at 50 ug, ip administered 5 times per week for 4 weeks and measured on day 32 (reference value: 1642 mm3). The class given is functional. Particulars: dose 50 µg.
Data set [20] has as its system MIA PaCa-2. Kind of data set: Antitumor activity against human MIA PaCa-2 cells xenografted in athymic BALB/c-nu mouse assessed as reduction in mean tumor volume at 250 ug, ip administered 5 times per week for 4 weeks and measured on day 18 (reference value: 447 mm3). The class given is functional. Particulars: dose 250 µg.
The test system of data set [21] is MIA PaCa-2. Briefly: Antitumor activity against human MIA PaCa-2 cells xenografted in athymic BALB/c-nu mouse assessed as reduction in mean tumor volume at 50 ug, ip administered 5 times per week for 4 weeks and measured on day 18 (reference value: 447 mm3). Particulars: dose 50 µg. The class given is functional.

As to `CCC1=CC(=O)c2ccccc2C1=O`, in [1], the Ratio turned out to be 33.1. The PC50 in the data set on PANC-1 [2] was determined as 1.2 µM. Moreover, in the data set with PANC-1 [3], the IC50 came out at 39.7 µM.
As to `CCCC1=CC(=O)c2c(O)cccc2C1=O`, in data set [1], the Ratio was 34.7. In addition, the PC50 with PANC-1 [2] came to 0.45 µM. Moreover, in the data set with PANC-1 [3], the IC50 is 15.6 µM.
Regarding `CCC1=CC(=O)c2c(OC)cccc2C1=O`, in data set [1], the Ratio was determined as 4.86. Moreover, the PC50 in the data set with PANC-1 [2] came to 21.2 µM. The IC50 with PANC-1 [3] amounted to 103 µM.
For `O=C1C=C(CC2CCCCC2)C(=O)c2ccccc21` the same measures were 69.9, 0.96 µM and 66.9 µM.
Regarding `O=C1C=C(Cc2cccc(Cl)c2)C(=O)c2ccccc21`, in [1], the Ratio came to 16.4. For the same compound, the PC50 in the data set on PANC-1 [2] turned out to be 2.84 µM. Besides, the IC50 in the data set with PANC-1 [3] is 46.7 µM.
For `CCCC1=CC(=O)c2ccccc2C1=O`, in [1], the Ratio turned out to be 11. The PC50 in the data set with PANC-1 [2] is 3.55 µM. In addition, in the data set on PANC-1 [3], the half-inhibitory concentration (IC50) worked out at 39.1 µM.
`O=C1C(CC2CCCCC2)=CC(=O)c2c(O)cccc21`: the result in the data set with MIA PaCa-2 [4], in the data set with PANC-1 [7], with PANC-1 [10], in the data set on PANC-1 [12], in the data set on MIA PaCa-2 [14] and in the data set on PANC-1 [17] was Active. In data set [1], the Ratio is recorded as 429. For the same compound, the Activity was 205.8 mg in the data set on MIA PaCa-2 [5]; “Non-Toxic” in [6]; 107.6 mg with MIA PaCa-2 [11]; “Non-Toxic” in data set [13]; “Non-Toxic” in data set [16]; 446 mm3 in the data set on MIA PaCa-2 [18]. Further, the Activity stood at 763 mm3 in the data set on MIA PaCa-2 [19], 166 mm3 in the data set with MIA PaCa-2 [20] and 210 mm3 in the data set with MIA PaCa-2 [21]. For the same compound, the inhibition result in [8] was “Active”. The inhibition entry in [9] is “Dose-Dependent Effect”; in data set [15] it was “Tde”. Moreover, in the data set with PANC-1 [2], the PC50 was found to be 0.11 µM. Besides, in the data set with PANC-1 [3], the IC50 turned out to be 47.2 µM.
`Cc1ccc(CC2=CC(=O)c3ccccc3C2=O)cc1`: in data set [1], the Ratio was determined as 16.3. For the same compound, the PC50 in the data set with PANC-1 [2] was 4.67 µM. Also, the IC50 with PANC-1 [3] was 76.2 µM.
Regarding `CC(C)CC1=CC(=O)c2c(O)cccc2C1=O`, the Ratio in data set [1] is given as 33.1. In the data set on PANC-1 [2], the PC50 stood at 0.39 µM. Moreover, in the data set with PANC-1 [3], the IC50 amounted to 12.9 µM.
As for `O=C1C(CC2CCCC2)=CC(=O)c2c(O)cccc21`, the Ratio in data set [1] came out at 21. In the data set with PANC-1 [2], the PC50 is 0.4 µM. For the same compound, in the data set on PANC-1 [3], the 50% inhibitory concentration (IC50) is 8.4 µM.
For `O=C1C=C(CC2CCCCC2)C(=O)c2c(O)cccc21` the same measures were 42.9, 0.74 µM and 31.9 µM.
Regarding `CCC1=CC(=O)c2cccc(O)c2C1=O`, the Ratio in [1] was 8.2. Moreover, in the data set on PANC-1 [2], the PC50 turned out to be 1.05 µM. Also, the IC50 in the data set on PANC-1 [3] was found to be 8.56 µM.
Regarding `O=C1C(CC2CCCCCC2)=CC(=O)c2c(O)cccc21`, the Ratio in data set [1] was found to be 5.41. In addition, in the data set on PANC-1 [2], the PC50 came out at 0.78 µM. In addition, the 50% inhibitory concentration (IC50) in the data set with PANC-1 [3] came to 4.22 µM.
For `CCC1=CC(=O)c2c(O)cccc2C1=O` the same measures were 21.6, 1.46 µM and 31.6 µM.
With `CC1=CC(=O)c2c(O)cccc2C1=O` [PLUMBAGIN], in data set [1], the Ratio was 15.4. Moreover, the PC50 in the data set with PANC-1 [2] came out at 1.54 µM. For the same compound, the half-maximal inhibitory concentration (IC50) with PANC-1 [3] turned out to be 23.7 µM.

The record behind these values is ChEMBL document CHEMBL5338810, “Targeting Pancreatic Cancer with Novel Plumbagin Derivatives: Design, Synthesis, Molecular Mechanism, In Vitro and In Vivo Evaluation” (J Med Chem, 2023).
